Experimental data from patent publication US11202776B2, “Treatment of gastroparesis with triazaspiro[4.5]decanone” (Millennium Pharmaceuticals, Inc., priority 2017, dated 2021).
Structures can show the parent of a compound that is named as a salt. Where two headings read alike, the source gives them in different places.

Assays:
[1] = Phase I single-ascending dose (SAD) pharmacokinetics incl. food effect, plasma concentration of the Compound; format: in vivo, human; conditions: for half-life / AUC(0-inf) / AUC(0-t) / Cmax / Tmax: human, plasma
Protocol: (§1) A phase I randomized, double-blind, placebo-controlled, adaptive-design, single-ascending dose (SAD) and multiple-ascending dose (MAD) study was conducted in healthy human subjects to evaluate the safety, tolerability, pharmacokinetics (PK), pharmacodynamics (PD), food effect, and optimal oral dose of 3-((1-cyclohexyl-4-oxo-8-(4-oxo-4-phenylbutyl)-1,3,8-triazaspiro[4.5]decan-3-yl)methyl)benzoic acid maleate (hereinafter, “the Maleate Salt”). The SAD phase included an arm to evaluate food effect on the PK of the Maleate Salt. The SAD phase also evaluated the effect of the Maleate Salt on ECG parameters, including an assessment of QT-interval changes using exposure-response analysis.
(§2) The Maleate Salt was formulated in the study as immediate-release, hard gelatin capsules for oral administration. Each capsule contained 5 mg or 25 mg of the Maleate Salt, as well as microcrystalline cellulose NF (AVICEL® PH-102), sodium starch glycolate NF (EXPLOTAB®), and magnesium stearate NF, all filled into a size 3 hard gelatin capsule. A matching placebo containing the same amount of microcrystalline cellulose NF in place of the Maleate Salt was used in the study. The Maleate Salt capsules and matching placebo capsules were packaged in high-density polyethylene (HDPE) bottles with polypropylene caps and stored at controlled conditions per the USP.
(§3) A total of 54 subjects received at least 1 dose of the Maleate Salt, ranging from 5 mg to the maximum single PO dose of 300 mg. Six subjects received a maximum single PO dose of 300 mg and 5 subjects received a total of 900 mg of the Maleate Salt over 5-day period (100 mg BID for 4 days with single 100 mg on Day 5).
The SAD phase had 7 cohorts dosed at 5 mg (cohort 1), 10 mg (cohort 2), 25 mg (cohort 3), 50 mg (cohort 4), 100 mg (cohort 5), 200 mg (cohort 6), and 300 mg (cohort 7) of the Maleate Salt. In each cohort, there were 6 active- and 2 placebo-treated subjects. Subjects were administered the Maleate Salt in the fasting state with 1 exception: subjects in the 25 mg cohort (cohort 3) received the Maleate Salt while fasting and again after a high-fat breakfast to determine food effect on PK.
Mean plasma concentration-time profiles for 3-((1-cyclohexyl-4-oxo-8-(4-oxo-4-phenylbutyl)-1,3,8-triazaspiro[4.5]decan-3-yl)methyl)benzoic acid (hereinafter, “the Compound”) following a single PO dose of the Maleate Salt are shown in FIG. 1.
In evaluating food effect on the PK of the Maleate Salt, subjects on Day 1 in cohort 3 were administered a single dose of the Maleate Salt at 25 mg or placebo in the fasted state. On Day 3, the same subjects received an identical dose 30 minutes after consumption of a standardized, high-fat, high-calorie breakfast.

[2] = Phase I multiple-ascending dose (MAD) pharmacokinetics, BID Days 1-4 and single morning dose Day 5; format: in vivo, human; conditions: for Tlast / Cmax / Tmax / half-life / AUC / concentration at 12 h / concentration at 24 h: fasting; for Cav, ss / Cmin / Tmin / AI: steady state; for AI: Day 5, mean; for Cmax / Tmax / half-life / AUC / concentration at 12 h / concentration at 24 h: human, plasma; for Cmax / Tmax / half-life / AUC: po; for AUC: read-out: AUC12; for concentration at 12 h / concentration at 24 h: read-out: Clast
Protocol: as §1, §2, §3
The MAD phase had 2 cohorts dosed at 50 and 100 mg of the Maleate Salt. In each cohort, there were 6 active- and 2 placebo-treated subjects. The Maleate Salt was administered to fasting subjects BID (morning and evening) on Days 1 through 4 and as a single morning dose on Day 5.
On Day 1, mean T1/2 was approximately 2 h for both 50 and 100 mg BID doses. On Day 5, mean T1/2 was 11.0 and 6.2 h following 50 and 100 mg BID doses, respectively. For T1/2 determination, the plasma samples for Day 1 were only collected to 12 h, whereas the plasma samples for Day 5 were collected to 24 h.

[3] = biological target: T1, D2 receptor (Homo sapiens, UniProt P14416); test: Clinical PD: serum prolactin concentration as marker of pharmacologic activity (D2 receptor target engagement); format: in vivo
T1 construct: from tissue; host or cells: healthy human subjects in vivo (lactotroph cells of the anterior pituitary gland)
Protocol: as §1
In the same phase I study, serum prolactin concentrations were evaluated as a marker of pharmacologic activity (D2 receptor target engagement). Prolactin is primarily secreted from lactotroph cells of the anterior pituitary gland, and the release of prolactin from these cells is under inhibitory control by DA. Fitzgerald and Dinan, J. Psychopharmacol. 2008, 22, 12-19.
The increases were substantial compared to placebo. The prolactin response was maximal at the 10 mg dose of the Maleate Salt in the SAD phase.

[4] = po, 5 mg, single PO dose 5 mg, fasted, healthy subjects
[5] = po, 10 mg, single PO dose 10 mg, fasted, healthy subjects
[6] = po, 25 mg, single PO dose 25 mg, fasted, healthy subjects
[7] = po, 25 mg, single PO dose 25 mg, fed (high-fat breakfast), healthy subjects
[8] = po, 50 mg, single PO dose 50 mg, fasted, healthy subjects
[9] = po, 100 mg, single PO dose 100 mg, fasted, healthy subjects
[10] = po, 200 mg, single PO dose 200 mg, fasted, healthy subjects
[11] = po, 300 mg, single PO dose 300 mg, fasted, healthy subjects

T1 sequence (P14416 whole entry): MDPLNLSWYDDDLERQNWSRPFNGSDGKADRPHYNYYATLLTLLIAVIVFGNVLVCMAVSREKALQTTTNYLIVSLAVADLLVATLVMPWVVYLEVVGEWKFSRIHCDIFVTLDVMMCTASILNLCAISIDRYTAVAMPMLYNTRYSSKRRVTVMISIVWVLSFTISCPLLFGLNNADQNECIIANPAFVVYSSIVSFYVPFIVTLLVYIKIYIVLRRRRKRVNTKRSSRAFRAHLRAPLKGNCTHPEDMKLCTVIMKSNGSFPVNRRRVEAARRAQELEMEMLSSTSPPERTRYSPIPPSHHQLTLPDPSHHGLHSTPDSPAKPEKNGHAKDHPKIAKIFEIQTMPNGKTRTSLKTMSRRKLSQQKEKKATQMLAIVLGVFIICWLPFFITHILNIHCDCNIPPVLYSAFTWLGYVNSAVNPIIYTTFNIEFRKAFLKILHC

## O=C(O)c1cccc(CN2CN(C3CCCCC3)C3(CCN(CCCC(=O)c4ccccc4)CC3)C2=O)c1 [Compound 1, 3-((1-cyclohexyl-4-oxo-8-(4-oxo-4-phenylbutyl)-1,3,8-triazaspiro[4.5]decan-3-yl)methyl)benzoic acid]
[1]; single PO dose, over 24 h
  Plasma concentration-time profile: rapid absorption and rapid elimination
[2]; MAD phase, 50 or 100 mg BID
  Plasma concentration-time profile: rapid absorption and rapid elimination

## O=C(O)c1cccc(CN2CN(C3CCCCC3)C3(CCN(CCCC(=O)c4ccccc4)CC3)C2=O)c1 [the Maleate Salt, 3-((1-cyclohexyl-4-oxo-8-(4-oxo-4-phenylbutyl)-1,3,8-triazaspiro[4.5]decan-3-yl)methyl)benzoic acid maleate]
[1]; 25 mg single dose, high-fat meal prior to dosing vs fasted
  Food effect on Tmax: did not alter Tmax
[1]; SAD phase, fasted conditions, 5-300 mg
  Exposure versus dose administered: approximately proportional to the dose administered
[1]; oral, across all cohorts in the SAD phase, read-out: Arithmetic mean T1/2 in fasted subjects (converted)
  half-life: ~4 h
[1]; [4]
  AUC(0-inf): 0.0045 µg·h/mL
  AUC(0-t): 0.0043 µg·h/mL
  Cmax: 0.0021 µg/mL
[1]; po, 5 mg, single PO dose 5 mg, fasted, healthy subjects, read-out: T1/2 (converted)
  half-life: ~1.6 h
[1]; po, 5 mg, single PO dose 5 mg, fasted, healthy subjects, read-out: Tmax
  Tmax: 0.83 h
[1]; [5]
  AUC(0-inf): 0.0131 µg·h/mL
  AUC(0-t): 0.0129 µg·h/mL
  Cmax: 0.0062 µg/mL
[1]; po, 10 mg, single PO dose 10 mg, fasted, healthy subjects, read-out: T1/2 (converted)
  half-life: ~1.6 h
[1]; po, 10 mg, single PO dose 10 mg, fasted, healthy subjects, read-out: Tmax
  Tmax: 1.21 h
[1]; [6]
  AUC(0-inf): 0.0304 µg·h/mL
  AUC(0-t): 0.0305 µg·h/mL
  Cmax: 0.0105 µg/mL
[1]; po, 25 mg, single PO dose 25 mg, fasted, healthy subjects, read-out: T1/2 (converted)
  half-life: 6 h
[1]; po, 25 mg, single PO dose 25 mg, fasted, healthy subjects, read-out: Tmax
  Tmax: 1.8 h
[1]; [7]
  AUC(0-inf): 0.0172 µg·h/mL
  AUC(0-t): 0.0176 µg·h/mL
  Cmax: 0.0067 µg/mL
[1]; po, 25 mg, single PO dose 25 mg, fed (high-fat breakfast), healthy subjects, read-out: T1/2 (converted)
  half-life: 7 h
[1]; po, 25 mg, single PO dose 25 mg, fed (high-fat breakfast), healthy subjects, read-out: Tmax
  Tmax: 2.2 h
[1]; [8]
  AUC(0-inf): 0.0567 µg·h/mL
  AUC(0-t): 0.0532 µg·h/mL
  Cmax: 0.022 µg/mL
[1]; po, 50 mg, single PO dose 50 mg, fasted, healthy subjects, read-out: T1/2 (converted)
  half-life: 3.1 h
[1]; po, 50 mg, single PO dose 50 mg, fasted, healthy subjects, read-out: Tmax
  Tmax: 1.04 h
[1]; [9]
  AUC(0-inf): 0.18 µg·h/mL
  AUC(0-t): 0.104 µg·h/mL
  Cmax: 0.0483 µg/mL
[1]; po, 100 mg, single PO dose 100 mg, fasted, healthy subjects, read-out: T1/2 (converted)
  half-life: 5.4 h
[1]; po, 100 mg, single PO dose 100 mg, fasted, healthy subjects, read-out: Tmax
  Tmax: 1.78 h
[1]; [10]
  AUC(0-inf): 0.242 µg·h/mL
  AUC(0-t): 0.24 µg·h/mL
  Cmax: 0.106 µg/mL
[1]; po, 200 mg, single PO dose 200 mg, fasted, healthy subjects, read-out: T1/2 (converted)
  half-life: 5.4 h
[1]; po, 200 mg, single PO dose 200 mg, fasted, healthy subjects, read-out: Tmax
  Tmax: 1.24 h
[1]; [11]
  AUC(0-inf): 0.447 µg·h/mL
  AUC(0-t): 0.421 µg·h/mL
  Cmax: 0.192 µg/mL
[1]; po, 300 mg, single PO dose 300 mg, fasted, healthy subjects, read-out: T1/2 (converted)
  half-life: 5.1 h
[1]; po, 300 mg, single PO dose 300 mg, fasted, healthy subjects, read-out: Tmax
  Tmax: 1.88 h
[1]; po, 25 to 300 mg dose levels, single PO dose, read-out: Arithmetic mean T1/2 in fasted subjects (converted)
  half-life: 3.1 to 6 h
[1]; po, SAD phase, single PO doses, read-out: Median Tmax
  Tmax: ~1.1 h
[2]; 50 mg BID PO, Day 1
  Tlast: 12.0 h
  concentration at 12 h: 0.0002 µg/mL
[2]; 50 mg BID PO, Day 5
  Tlast: 24.0 h
  Cav, ss: 0.00484 µg/mL
  Cmin: 0.00032 µg/mL
  Tmin: 8.0 h
  concentration at 24 h: 0.00018 µg/mL
[2]; 50 mg BID PO
  AI: 1.89
[2]; 100 mg BID PO, Day 1
  Tlast: 12.0 h
  concentration at 12 h: 0.00042 µg/mL
[2]; 100 mg BID PO, Day 5
  Tlast: 24.0 h
  Cav, ss: 0.01671 µg/mL
  Cmin: 0.00065 µg/mL
  Tmin: 4.8 h
  concentration at 24 h: 0.00028 µg/mL
[2]; 100 mg BID PO
  AI: 1.38
[2]; 50 or 100 mg BID dosing
  Accumulation for AUC12: less than 30%
  Accumulation for Cmax: less than 40%
[2]; 50 mg, 50 mg BID PO, Day 1
  Cmax: 0.0233 µg/mL
  Tmax: 1.55 h
  AUC: 0.0536 µg·h/mL
[2]; 50 mg, 50 mg BID PO, Day 1 (samples collected to 12 h)
  half-life: ~2 h
[2]; 50 mg, 50 mg BID PO, Day 5
  Cmax: 0.0312 µg/mL
  Tmax: 1.17 h
  AUC: 0.0581 µg·h/mL
[2]; 50 mg, 50 mg BID PO, Day 5 (samples collected to 24 h)
  half-life: 11 h
[2]; 100 mg, 100 mg BID PO, Day 1
  Cmax: 0.0715 µg/mL
  Tmax: 1.03 h
  AUC: 0.152 µg·h/mL
[2]; 100 mg, 100 mg BID PO, Day 1 (samples collected to 12 h)
  half-life: ~2 h
[2]; 100 mg, 100 mg BID PO, Day 5
  Cmax: 0.0716 µg/mL
  Tmax: 1.53 h
  AUC: 0.201 µg·h/mL
[2]; 100 mg, 100 mg BID PO, Day 5 (samples collected to 24 h)
  half-life: 6.2 h
[3]; MAD phase, after BID dosing for 5 days
  Accumulation in serum prolactin: little if any accumulation
[3]; SAD phase
  Dose at which the prolactin response was maximal: 10 mg
[3]; across all 48 single-dose administrations
  Median serum prolactin Tmax: approximately 1.1 h
[3]; following oral administration
  Increases in serum prolactin compared to placebo: substantial
[3]; following oral administration, SAD and MAD phases
  Serum prolactin concentration: increased rapidly
